Earlier results, collected in US7259160B2, “Hexahydrodiazepinones as dipeptidyl peptidase-IV inhibitors for the treatment or prevention of diabetes” (Merck & Co., Inc., priority 2003, dated 2007).

Legend:
[1] = tested on: hematopoiesis; conditions: mouse, cyclophosphamide-induced neutropenia
[2] = molecular target: T1, DPP-IV (Homo sapiens, UniProt P27487)
T1 construct: GRF is rapidly degraded in plasma to GRF[344]
T1 sequence (P27487 whole entry, species assumed): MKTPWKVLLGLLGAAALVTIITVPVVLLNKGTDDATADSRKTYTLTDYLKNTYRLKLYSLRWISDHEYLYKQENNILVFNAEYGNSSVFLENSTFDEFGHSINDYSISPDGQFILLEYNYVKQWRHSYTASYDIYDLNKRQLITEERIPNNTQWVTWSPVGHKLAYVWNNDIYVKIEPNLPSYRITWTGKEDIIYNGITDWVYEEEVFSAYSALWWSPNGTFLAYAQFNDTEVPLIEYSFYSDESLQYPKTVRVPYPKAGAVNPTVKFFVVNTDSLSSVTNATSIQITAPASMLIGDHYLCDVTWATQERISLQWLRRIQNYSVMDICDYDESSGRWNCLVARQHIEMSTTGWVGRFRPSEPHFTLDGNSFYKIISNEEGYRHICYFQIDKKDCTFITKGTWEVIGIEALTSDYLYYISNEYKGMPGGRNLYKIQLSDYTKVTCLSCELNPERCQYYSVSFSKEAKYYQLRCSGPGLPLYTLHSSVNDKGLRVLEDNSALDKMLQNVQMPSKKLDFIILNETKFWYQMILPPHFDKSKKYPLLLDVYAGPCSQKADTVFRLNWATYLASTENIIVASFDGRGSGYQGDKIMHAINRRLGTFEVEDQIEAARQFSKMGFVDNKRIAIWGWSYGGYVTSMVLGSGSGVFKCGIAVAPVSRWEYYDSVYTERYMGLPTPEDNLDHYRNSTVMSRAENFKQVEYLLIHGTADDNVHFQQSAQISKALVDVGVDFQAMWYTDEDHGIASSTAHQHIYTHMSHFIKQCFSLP

degradation of GRF in plasma [2] | Molecule | hematopoiesis [1]
 | CC(C)[C@H](N)C(=O)N1CCC[C@H]1B(O)O [Val-Boro-Pro] | stimulated hematopoiesis
prevented | diprotin A | 
